The values below come from paper PMC7394005, “Assessing the Selectivity of FXR, LXRs, CAR, and RORγ Pharmaceutical Ligands With Reporter Cell Lines” (Frontiers in Pharmacology, 2020).

As a reminder, the EC50 is the concentration that produces a half-maximal response. The term IC50 denotes the concentration that inhibits the measured activity by half.

Like-named read-outs stand apart in the source and are kept apart here.

Type in all cases: cell-based
The target in one series is T1, human FXR (Homo sapiens, UniProt Q96RI1).
T1 construct: FXR (R193-Q486); expressed in transfected cells; host or cells: HG5LN (HeLa cells carrying the (GAL4RE)5-βGlob-Luc-SVNeo reporter)
T1 sequence (Q96RI1 193-486): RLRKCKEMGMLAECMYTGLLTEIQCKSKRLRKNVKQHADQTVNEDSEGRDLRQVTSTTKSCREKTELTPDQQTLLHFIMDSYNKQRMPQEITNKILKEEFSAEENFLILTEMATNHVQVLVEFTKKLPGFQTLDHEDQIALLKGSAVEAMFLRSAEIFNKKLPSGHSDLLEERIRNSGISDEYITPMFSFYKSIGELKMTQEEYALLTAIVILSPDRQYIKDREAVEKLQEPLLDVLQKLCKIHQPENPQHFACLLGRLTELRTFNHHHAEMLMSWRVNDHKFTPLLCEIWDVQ
The experiment in a line: HG5LN GAL4-FXR reporter cell line, agonist mode (luciferase transactivation). The note with it: NE = No effect; for EC50: HG5LN GAL4-FXR cells, tested alone. The source says: (§1) To construct GAL4-NR chimeras, individual LBDs of human FXR (R193-Q486), LXRα (A187-E447), LXRβ (G199-E461), CAR (M76-S348), and RORγ (S97-K518) were amplified by PCR with primers containing XhoI and SacI restriction sites (FXR), XhoI and BamHI (LXRs, CAR, RORγ) and inserted in pSG5-GAL4(DBD)-puromycin plasmid. To construct GAL4-CAR (+ APYLT) (M76-S353), the five amino acids APYLT were inserted by overlap extension PCR between amino acids P270 and D271 of CAR.
(§2) To characterize the specificity of chemicals for human FXR, LXRα, LXRβ, CAR and RORγ, we established in a similar manner HG5LN FXR, LXRα, LXRβ, CAR WT, CAR (APYLT) and RORγ reporter cell lines. […] These cells were stably transfected by pSG5-GAL4 (DBD)-NRs (LBD)-puromycin plasmid and selected in presence of 0.5 µg/ml puromycin. […] From each HG5LN NR cells, 5 to 10 clones were chosen for their ligand inducibility of luciferase expression. […] The most inducible clones were expanded and rechecked for inducibility and aliquots were frozen at different passages. One clone per receptor was maintained in culture and used for ligand screening. HG5LN cells were cultured in Dulbecco’s modified Eagle’s medium (DMEM): Nutrient Mixture F-12 (DMEM/F-12) containing phenol red and 1 g/l glucose and supplemented with 5% fetal bovine serum, 100 units/ml of penicillin, 100 µg/ml of streptomycin and 1 mg/ml geneticin, in 5% CO2 humidified atmosphere at 37°C. Stably transfected cell lines derived from HG5LN cells were cultured in the same culture medium supplemented with 0.5 µg/ml puromycin.
(§3) Individual reporter cell lines were seeded at a density of 40,000 cells per well in 96-well white opaque tissue culture plates (Greiner CellStar) in Dulbecco’s Modified Eagle Medium: Nutrient Mixture F-12 (DMEM/F-12) without phenol red and 1 g/l glucose and supplemented with 5% stripped fetal bovine serum, 100 units/ml of penicillin, 100 µg/ml of streptomycin (test medium). Chemicals to be tested were added 24h later, and cells were incubated at 37°C for 16h. Experiments were performed in quadruplicates. At the end of the incubation period, culture medium was replaced with test medium containing 0.3 mM luciferin solution. Luciferase activity was measured for 2s in intact living cells after 10 min stabilization using a Micro Beta Wallac luminometer (PerkinElmer). EC50 values were calculated using GraphPad Prism (GraphPad Software Inc).
(§4) Chemicals tested for agonism on FXR, LXRs, CAR (+ APYLT), PXR, and antagonism on CAR and RORγ were tested alone, without addition of any other ligand.
(§5) In the transactivation assay, each compound was tested at various concentrations in three independent experiments at least. For each experiment, tests were performed in quadruplicates for each concentration, and data are expressed by means values with standard deviations. Individual agonist dose–response curves, in the absence and presence of antagonist, were fitted using the sigmoid dose-response function of a graphics and statistics software program (GraphPad Prism, version 5.0). EC50 (effective concentration for half-maximal luciferase activity) and IC50 (half-maximal inhibitory concentration) values were calculated from equations used to fit the data in this graphic software. Transactivation data are presented as EC50 and IC50 values for each compound tested. To analyze significances, we compared individual compound treatments with controls using one-way analysis of variance (ANOVA) with the help of GraphPad Prism software.

Another series concerns the target T2, human LXRα (Homo sapiens, UniProt Q13133).
T2 construct: LXRα (A187-E447); expressed in transfected cells; host or cells: HG5LN (HeLa cells carrying the (GAL4RE)5-βGlob-Luc-SVNeo reporter)
T2 sequence (Q13133 187-447): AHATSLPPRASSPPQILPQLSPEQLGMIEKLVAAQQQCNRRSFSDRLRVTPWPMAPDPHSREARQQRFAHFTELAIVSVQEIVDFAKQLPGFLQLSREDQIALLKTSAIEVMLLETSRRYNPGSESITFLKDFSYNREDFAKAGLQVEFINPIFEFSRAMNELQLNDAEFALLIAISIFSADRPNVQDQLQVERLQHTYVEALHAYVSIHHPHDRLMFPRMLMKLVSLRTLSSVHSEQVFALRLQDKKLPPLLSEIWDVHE
The series is described as follows: HG5LN GAL4-LXRα reporter cell line, agonist mode. The note with it: for LXRα % max act: maximal luciferase activity at 10^-5 M (10^-6 M for * and 3 10^-6 M for ** compounds), 100% = 1 µM T0901317, DMSO 8 ± 1.
Description: as §1, §2, §3, §4, §5

The target in another series is T3, human PXR (Homo sapiens, UniProt O75469).
T3 construct: The GAL4-NR chimeric cell lines provide uniform cellular model differing just in receptor LBDs; expressed in transfected cells; host or cells: HG5LN PXR (HeLa-derived; described in Delfosse et al., 2015)
T3 sequence (O75469 146-433 limits assumed): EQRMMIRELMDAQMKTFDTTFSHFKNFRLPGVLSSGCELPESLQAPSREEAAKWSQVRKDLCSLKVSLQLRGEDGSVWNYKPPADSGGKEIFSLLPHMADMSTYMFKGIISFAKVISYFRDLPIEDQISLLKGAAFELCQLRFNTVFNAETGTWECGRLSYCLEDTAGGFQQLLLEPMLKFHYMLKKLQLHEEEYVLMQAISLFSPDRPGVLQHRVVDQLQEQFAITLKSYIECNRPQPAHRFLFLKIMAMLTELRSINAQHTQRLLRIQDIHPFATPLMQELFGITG
The experiment in a line: HG5LN PXR reporter cell line, antagonist mode in presence of SR12813. The note with it: read-out: PXR (SR12813 300 nM) IC50; in presence of SR12813 300 nM; NE = No effect. As to the method: as §2, §3, §4, §5

Setting [1] is: HG5LN GAL4-LXRα cells, tested alone, NE = No effect, read-out: LXRα EC50.

As for `CCOC(=O)Nc1ccc2c(c1)N(C(=O)CN(CC)CC)c1ccccc1CC2` [CINPA1], the EC50 at human FXR and on human LXRα (setting [1]) was over 10 µM throughout.
As to `Clc1ccc(-c2nc3sccn3c2/C=N/OCc2ccc(Cl)c(Cl)c2)cc1` [CITCO], the EC50 at human FXR and at human LXRα (setting [1]) was over 10 µM throughout.
In the case of `Clc1ccccc1C(c1ccccc1)(c1ccccc1)n1ccnc1` [Clotrimazole, clotrimazole], the EC50 on human LXRα (setting [1]) was over 10 µM.
As for `COc1cccc(Cn2cc(C(=O)Nc3ccc(C)c(S(=O)(=O)N4CCOCC4)c3)c(-c3ccc(C)cc3)n2)c1` [DY268], the EC50 on human LXRα (setting [1]) was over 10 µM. For the same compound, at human PXR, the IC50 was over 10 µM.
For `CC(C)(C)c1nc(-c2cccc(NS(=O)(=O)c3c(F)cccc3F)c2F)c(-c2ccnc(N)n2)s1` [Dabrafenib], the EC50 at human FXR and at human LXRα (setting [1]) was over 10 µM throughout.
Consider `COC(=O)/C=C/c1cccc(N(Cc2ccc(-c3ccc(N(C)C)cc3)cc2)C(=O)C2CCCCC2)c1` [Feraxamine], for which the results for the EC50 at human FXR and on human LXRα (setting [1]) were 0.612 ± 0.188 µM and over 10 µM, respectively. For the same compound, at human FXR (maximal luciferase activity at 10^-5 M (10^-6 M for * and 3 10^-6 M for ** compounds), 100% = 1 µM GW4064, DMSO 6 ± 1), the “FXR % max act” value was found to be 33%. Besides, the IC50 at human PXR is over 10 µM.
At human FXR, `Cc1cc(C)c(S(=O)(=O)N(Cc2ccc(-c3cccc(S(C)(=O)=O)c3)cc2)Cc2ccc(C(F)(F)F)o2)c(C)c1` [GSK2033] registered an EC50 of over 10 µM.
With `O=C(O)Cc1cccc(OCCCN(Cc2cccc(C(F)(F)F)c2Cl)CC(c2ccccc2)c2ccccc2)c1` [GW3965], the EC50 on human LXRα (setting [1]) stood at 0.176 ± 0.048 µM. The “LXRα % max act” value at human LXRα (NE = No effect) is 98%.
`CC(C)c1onc(-c2c(Cl)cccc2Cl)c1COc1ccc(/C=C/c2cccc(C(=O)O)c2)c(Cl)c1` [GW4064]: the 50% effective concentration (EC50) on human LXRα (setting [1]) is over 10 µM. The IC50 on human PXR is over 10 µM.
With `Cc1oc2ccccc2c1CNC(=O)NCc1cccs1` [S07662], the EC50 at human FXR and on human LXRα (setting [1]) was over 10 µM in each case. On human PXR, the IC50 is over 10 µM.
With `O=C(Nc1ccc(C(O)(C(F)(F)F)C(F)(F)F)cc1)c1ccccc1Cl` [SR0987], the EC50 on human FXR and at human LXRα (setting [1]) was over 10 µM each time.
In the case of `CC(=O)Nc1nc(C)c(S(=O)(=O)Nc2ccc(C(O)(C(F)(F)F)C(F)(F)F)cc2)s1` [SR1001], the EC50 on human FXR and on human LXRα (setting [1]) was over 10 µM in each case. The IC50 on human PXR was over 10 µM.
On to `O=C(Nc1ccc(C(O)(C(F)(F)F)C(F)(F)F)cc1)c1ccc(C(F)(F)F)cc1` [SR1078], for which the EC50 on human FXR and at human LXRα (setting [1]) was over 10 µM in each case. For the same compound, the IC50 on human PXR is over 10 µM.
Regarding `CCOC(=O)c1ccc(CN(Cc2ccc(-c3cccc(S(C)(=O)=O)c3)cc2)S(=O)(=O)c2c(C)cc(C)cc2C)o1` [SR9238], at human FXR, the EC50 is over 10 µM.
`Cc1cc(C)c(S(=O)(=O)N(CCc2cccc(Br)c2)Cc2ccc(-c3cccc(S(C)(=O)=O)c3)cc2)c(C)c1` [SR9243] came in with an EC50 at human FXR of over 10 µM.
With `CCOP(=O)(OCC)C(=Cc1cc(C(C)(C)C)c(O)c(C(C)(C)C)c1)P(=O)(OCC)OCC` [SR12813], the EC50 on human FXR and on human LXRα (setting [1]) was over 10 µM each time.
Take `Fc1ccc(-c2c3cccc(C(F)(F)F)c3nn2Cc2ccc(F)cc2Cl)cc1` [WAY252623]: the EC50 at human FXR was over 10 µM; at human LXRα, 0.595 ± 0.068 µM. On human LXRα (NE = No effect), the “LXRα % max act” value was found to be 67%.
On to SPA70, for which the EC50 at human FXR and at human LXRα (setting [1]) was over 10 µM each time.
